Measurements as given in publication PMC3382171 (PLoS ONE, 2012).

What was measured:
Experiment in all cases: biochemical
Details in all cases: read-out: Upstate KSS % inhibition at 1uM
[1] = biological target: T1, PKD2 (Homo sapiens, UniProt Q9BZL6)
T1 construct: gene PRKD2
Protocol: (§1) In these selectivity assays the concentration of ATP was set to the Km value of ATP for each kinase tested to allow for a relative potency comparison between the various kinases. The compounds were tested at 1 µM final concentration. […] (A) Kinase selectivity screen (KSS) performed at Upstate Biotechnology. […] (B) KSS performed at University of Dundee (Division of Signal Transduction Therapy). […] (PDF) Click here for additional data file.

[2] = biological target: PLK3 (Homo sapiens, UniProt Q9H4B4)
Sequence of PLK3 (Q9H4B4 whole entry): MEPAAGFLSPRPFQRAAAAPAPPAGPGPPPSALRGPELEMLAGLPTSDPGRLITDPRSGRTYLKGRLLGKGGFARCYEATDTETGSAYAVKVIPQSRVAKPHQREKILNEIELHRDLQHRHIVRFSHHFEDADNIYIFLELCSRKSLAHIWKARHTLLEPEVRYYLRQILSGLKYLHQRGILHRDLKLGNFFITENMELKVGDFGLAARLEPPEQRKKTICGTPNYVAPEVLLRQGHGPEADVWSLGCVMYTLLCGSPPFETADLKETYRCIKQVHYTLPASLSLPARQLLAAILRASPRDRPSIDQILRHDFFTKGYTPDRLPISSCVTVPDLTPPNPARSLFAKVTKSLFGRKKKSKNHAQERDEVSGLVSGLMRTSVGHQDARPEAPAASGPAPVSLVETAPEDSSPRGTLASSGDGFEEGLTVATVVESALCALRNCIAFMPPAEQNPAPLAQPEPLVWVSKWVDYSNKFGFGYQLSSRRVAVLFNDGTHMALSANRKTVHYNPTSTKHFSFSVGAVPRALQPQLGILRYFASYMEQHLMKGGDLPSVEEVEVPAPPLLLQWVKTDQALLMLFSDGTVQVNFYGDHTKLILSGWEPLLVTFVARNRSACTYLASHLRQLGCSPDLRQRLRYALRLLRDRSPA
Protocol: as §1

[3] = biological target: T2, PKCmu (Homo sapiens, UniProt Q15139)
T2 construct: gene PRKD1
Protocol: as §1

[4] = biological target: T3, LKB1 (Homo sapiens, UniProt Q15831)
T3 construct: gene STK11
Protocol: as §1

[5] = biological target: T4, PKG1alpha (Homo sapiens, UniProt Q13976)
T4 construct: gene PRKG1; isoform alpha
Protocol: as §1

[6] = biological target: T5, PAR-1Balpha (Homo sapiens, UniProt Q7KZI7)
T5 construct: gene MARK2
Protocol: as §1

[7] = biological target: T6, IKKalpha (Homo sapiens, UniProt O15111)
T6 construct: gene CHUK
Protocol: as §1

[8] = biological target: T7, JNK1alpha1 (Homo sapiens, UniProt P45983)
T7 construct: gene MAPK8; isoform alpha1
Protocol: as §1

[9] = biological target: T8, MLCK (Homo sapiens, UniProt Q15746)
T8 construct: gene MYLK
Protocol: as §1

[10] = biological target: T9, Rsk1 (Homo sapiens, UniProt Q15418)
T9 construct: gene RPS6KA1
Protocol: as §1

[11] = biological target: T10, PDGFRalpha (Homo sapiens, UniProt P16234)
T10 construct: gene PDGFRA
Protocol: as §1

[12] = biological target: T11, Rse (Homo sapiens, UniProt Q06418)
T11 construct: gene TYRO3
Protocol: as §1

[13] = biological target: KDR (Homo sapiens, UniProt P35968)
Protocol: as §1

[14] = biological target: EPHB2 (Homo sapiens, UniProt P29323)
Sequence of EPHB2 (P29323 whole entry): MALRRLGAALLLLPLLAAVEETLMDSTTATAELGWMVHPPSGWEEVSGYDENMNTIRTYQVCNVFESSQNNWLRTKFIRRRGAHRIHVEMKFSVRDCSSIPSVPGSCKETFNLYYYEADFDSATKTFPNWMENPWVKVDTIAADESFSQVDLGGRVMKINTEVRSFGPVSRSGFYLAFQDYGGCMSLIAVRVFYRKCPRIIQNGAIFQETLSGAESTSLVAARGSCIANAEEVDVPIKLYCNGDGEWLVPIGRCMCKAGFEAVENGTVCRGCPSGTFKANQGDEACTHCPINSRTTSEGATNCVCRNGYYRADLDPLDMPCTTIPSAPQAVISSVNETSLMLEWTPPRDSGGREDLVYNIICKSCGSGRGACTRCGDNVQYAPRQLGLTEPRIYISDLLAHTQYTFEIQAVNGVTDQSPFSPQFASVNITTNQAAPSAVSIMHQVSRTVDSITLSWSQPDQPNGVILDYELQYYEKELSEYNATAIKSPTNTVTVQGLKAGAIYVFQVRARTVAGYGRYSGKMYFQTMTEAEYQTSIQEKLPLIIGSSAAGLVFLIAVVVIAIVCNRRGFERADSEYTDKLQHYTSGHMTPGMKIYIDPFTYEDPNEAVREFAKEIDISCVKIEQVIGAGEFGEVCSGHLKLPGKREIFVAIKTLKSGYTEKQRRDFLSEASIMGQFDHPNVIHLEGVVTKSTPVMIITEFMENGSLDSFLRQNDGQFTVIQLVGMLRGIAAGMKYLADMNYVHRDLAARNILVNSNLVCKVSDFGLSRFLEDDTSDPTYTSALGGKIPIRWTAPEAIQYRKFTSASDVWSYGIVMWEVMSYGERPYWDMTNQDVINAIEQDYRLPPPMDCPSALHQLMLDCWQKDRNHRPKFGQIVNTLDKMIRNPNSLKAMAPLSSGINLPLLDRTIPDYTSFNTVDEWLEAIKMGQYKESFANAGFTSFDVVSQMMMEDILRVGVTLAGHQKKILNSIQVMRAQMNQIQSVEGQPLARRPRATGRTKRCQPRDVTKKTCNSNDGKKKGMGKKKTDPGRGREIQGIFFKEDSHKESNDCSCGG
Protocol: as §1

[15] = biological target: T12, ASK1 (Homo sapiens, UniProt Q99683)
T12 construct: gene MAP3K5
T12 sequence (Q99683 whole entry): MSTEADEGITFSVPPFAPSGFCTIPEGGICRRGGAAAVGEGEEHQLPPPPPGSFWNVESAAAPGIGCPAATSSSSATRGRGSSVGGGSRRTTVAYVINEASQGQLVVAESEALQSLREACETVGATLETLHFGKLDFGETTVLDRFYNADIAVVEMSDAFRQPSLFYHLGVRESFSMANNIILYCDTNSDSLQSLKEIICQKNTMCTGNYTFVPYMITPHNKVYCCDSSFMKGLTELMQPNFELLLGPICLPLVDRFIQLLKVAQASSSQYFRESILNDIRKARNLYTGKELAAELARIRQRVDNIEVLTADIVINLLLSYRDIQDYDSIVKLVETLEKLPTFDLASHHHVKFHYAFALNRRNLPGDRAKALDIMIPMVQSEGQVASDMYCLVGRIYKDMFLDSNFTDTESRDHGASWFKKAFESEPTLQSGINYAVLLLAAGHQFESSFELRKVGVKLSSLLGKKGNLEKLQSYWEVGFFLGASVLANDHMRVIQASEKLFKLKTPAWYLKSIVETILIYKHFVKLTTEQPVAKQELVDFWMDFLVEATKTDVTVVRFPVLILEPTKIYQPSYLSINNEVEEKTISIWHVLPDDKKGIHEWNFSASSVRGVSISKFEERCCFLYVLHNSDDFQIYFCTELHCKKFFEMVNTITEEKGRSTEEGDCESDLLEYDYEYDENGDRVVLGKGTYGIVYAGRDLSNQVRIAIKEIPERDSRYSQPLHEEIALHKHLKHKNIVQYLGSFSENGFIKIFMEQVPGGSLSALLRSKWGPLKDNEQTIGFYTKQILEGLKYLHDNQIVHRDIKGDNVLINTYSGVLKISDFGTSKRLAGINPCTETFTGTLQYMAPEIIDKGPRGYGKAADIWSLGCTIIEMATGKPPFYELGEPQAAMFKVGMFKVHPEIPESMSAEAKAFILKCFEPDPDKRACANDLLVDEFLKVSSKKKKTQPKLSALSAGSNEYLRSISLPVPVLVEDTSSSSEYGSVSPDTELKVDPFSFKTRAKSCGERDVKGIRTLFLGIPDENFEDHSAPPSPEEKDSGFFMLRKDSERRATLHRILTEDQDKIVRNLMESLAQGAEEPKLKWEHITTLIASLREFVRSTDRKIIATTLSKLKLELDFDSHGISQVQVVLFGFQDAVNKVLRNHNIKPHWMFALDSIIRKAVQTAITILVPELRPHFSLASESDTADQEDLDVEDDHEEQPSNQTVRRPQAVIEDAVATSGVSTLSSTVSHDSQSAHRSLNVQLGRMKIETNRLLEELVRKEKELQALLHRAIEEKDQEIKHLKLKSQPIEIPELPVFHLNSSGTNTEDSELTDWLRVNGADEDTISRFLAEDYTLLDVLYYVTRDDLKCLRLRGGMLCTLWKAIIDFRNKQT
Protocol: as §1

[16] = biological target: PAK2 (Homo sapiens, UniProt Q13177)
Protocol: as §1

[17] = biological target: T13, PKCbeta (Homo sapiens, UniProt P05771)
T13 construct: gene PRKCB
Protocol: as §1

[18] = biological target: T14, c-RAF (Homo sapiens, UniProt P04049)
T14 construct: gene RAF1
Protocol: as §1

[19] = biological target: T15, Aurora-A (Homo sapiens, UniProt O14965)
T15 construct: gene AURKA
Protocol: as §1

[20] = biological target: FGFR3 (Homo sapiens, UniProt P22607)
Protocol: as §1

[21] = biological target: T16, FAK (Homo sapiens, UniProt Q05397)
T16 construct: gene PTK2
Protocol: as §1

[22] = biological target: T17, PKCiota (Homo sapiens, UniProt P41743)
T17 construct: gene PRKCI
Protocol: as §1

[23] = biological target: T18, PKCgamma (Homo sapiens, UniProt P05129)
T18 construct: gene PRKCG
Protocol: as §1

[24] = biological target: NEK6 (Homo sapiens, UniProt Q9HC98)
Sequence of NEK6 (Q9HC98 whole entry): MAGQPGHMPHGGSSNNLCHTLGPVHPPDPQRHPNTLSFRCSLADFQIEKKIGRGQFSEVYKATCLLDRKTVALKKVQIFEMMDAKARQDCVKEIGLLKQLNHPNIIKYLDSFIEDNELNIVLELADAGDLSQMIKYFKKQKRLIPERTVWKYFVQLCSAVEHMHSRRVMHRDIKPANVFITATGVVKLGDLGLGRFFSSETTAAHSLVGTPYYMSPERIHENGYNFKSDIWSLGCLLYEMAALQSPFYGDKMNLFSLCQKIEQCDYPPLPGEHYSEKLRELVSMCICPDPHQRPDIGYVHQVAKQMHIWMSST
Protocol: as §1

[25] = biological target: LCK (Homo sapiens, UniProt P06239)
Protocol: as §1

[26] = biological target: T19, rat CK1delta (Rattus norvegicus, UniProt Q06486)
T19 construct: gene Csnk1d
Protocol: as §1

[27] = biological target: T20, IR (Homo sapiens, UniProt P06213)
T20 construct: gene INSR
Protocol: as §1

[28] = biological target: T21, TAK1 (Homo sapiens, UniProt O43318)
T21 construct: gene MAP3K7
Protocol: as §1

[29] = biological target: T22, MKK6 (Homo sapiens, UniProt P52564)
T22 construct: gene MAP2K6
Protocol: as §1

[30] = biological target: EPHB4 (Homo sapiens, UniProt P54760)
Protocol: as §1

[31] = biological target: T23, CAMKIIbeta (Homo sapiens, UniProt Q13554)
T23 construct: gene CAMK2B
Protocol: as §1

[32] = biological target: EGFR (Homo sapiens, UniProt P00533)
Protocol: as §1

[33] = biological target: ALK (Homo sapiens, UniProt Q9UM73)
Protocol: as §1

[34] = biological target: T24, MRCKalpha (Homo sapiens, UniProt Q5VT25)
T24 construct: gene CDC42BPA
T24 sequence (Q5VT25 whole entry): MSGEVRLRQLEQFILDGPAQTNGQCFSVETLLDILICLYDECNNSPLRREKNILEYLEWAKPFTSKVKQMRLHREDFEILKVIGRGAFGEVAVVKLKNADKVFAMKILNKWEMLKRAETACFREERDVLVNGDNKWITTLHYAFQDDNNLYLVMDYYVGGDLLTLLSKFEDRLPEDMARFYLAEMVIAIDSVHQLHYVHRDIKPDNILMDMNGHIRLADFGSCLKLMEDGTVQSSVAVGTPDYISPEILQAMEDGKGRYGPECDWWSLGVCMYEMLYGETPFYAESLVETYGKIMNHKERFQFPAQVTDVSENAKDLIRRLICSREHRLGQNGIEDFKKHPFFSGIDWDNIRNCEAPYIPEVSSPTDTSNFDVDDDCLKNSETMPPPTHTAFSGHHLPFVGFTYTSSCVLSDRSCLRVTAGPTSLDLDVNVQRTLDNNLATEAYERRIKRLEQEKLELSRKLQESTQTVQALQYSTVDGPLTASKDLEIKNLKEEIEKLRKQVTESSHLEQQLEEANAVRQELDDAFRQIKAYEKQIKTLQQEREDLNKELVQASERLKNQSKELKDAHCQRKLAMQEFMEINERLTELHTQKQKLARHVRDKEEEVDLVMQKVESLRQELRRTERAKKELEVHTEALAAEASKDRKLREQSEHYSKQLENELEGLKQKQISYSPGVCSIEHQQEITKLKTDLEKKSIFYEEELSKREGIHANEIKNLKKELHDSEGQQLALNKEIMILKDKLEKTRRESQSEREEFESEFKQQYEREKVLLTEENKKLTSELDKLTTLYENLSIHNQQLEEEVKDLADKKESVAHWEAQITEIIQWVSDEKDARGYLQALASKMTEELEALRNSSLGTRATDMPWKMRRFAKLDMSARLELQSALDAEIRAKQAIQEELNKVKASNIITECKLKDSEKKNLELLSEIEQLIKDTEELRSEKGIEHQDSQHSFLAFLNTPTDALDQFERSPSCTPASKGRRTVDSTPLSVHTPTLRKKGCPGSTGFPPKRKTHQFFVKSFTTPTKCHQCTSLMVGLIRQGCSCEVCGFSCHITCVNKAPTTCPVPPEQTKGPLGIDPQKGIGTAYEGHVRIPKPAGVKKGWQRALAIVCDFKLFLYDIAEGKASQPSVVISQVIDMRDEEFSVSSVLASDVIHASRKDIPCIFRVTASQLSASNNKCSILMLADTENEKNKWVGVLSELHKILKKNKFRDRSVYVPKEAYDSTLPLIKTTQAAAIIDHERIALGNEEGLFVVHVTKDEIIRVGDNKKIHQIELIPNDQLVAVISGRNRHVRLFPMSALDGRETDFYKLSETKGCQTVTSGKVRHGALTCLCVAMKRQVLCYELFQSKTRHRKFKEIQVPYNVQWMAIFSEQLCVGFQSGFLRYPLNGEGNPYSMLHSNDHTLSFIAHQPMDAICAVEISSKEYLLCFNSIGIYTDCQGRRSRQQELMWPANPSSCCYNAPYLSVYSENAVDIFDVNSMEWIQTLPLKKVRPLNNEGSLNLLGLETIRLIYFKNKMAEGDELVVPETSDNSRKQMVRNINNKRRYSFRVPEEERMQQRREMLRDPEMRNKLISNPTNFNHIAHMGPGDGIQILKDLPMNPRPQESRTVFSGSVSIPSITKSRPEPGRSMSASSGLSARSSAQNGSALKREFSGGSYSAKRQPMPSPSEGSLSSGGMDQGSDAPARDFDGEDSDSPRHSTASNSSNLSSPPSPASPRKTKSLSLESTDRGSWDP
Protocol: as §1

In the case of `OCCn1cc(-c2cnc3nnn(Cc4ccc5ncccc5c4)c3n2)cn1` [METi, PF-04217903], the inhibition at 1 µM [1] is reported as 5%, the inhibition at 1 µM [2] is reported as -7% and the inhibition at 1 µM [3] is reported as 5%. The inhibition at 1 µM [4] was -10%, the inhibition at 1 µM [5] was 3% and the inhibition at 1 µM [6] was 17%. For the same compound, the inhibition at 1 µM [7] was -2%, the inhibition at 1 µM [8] was 0% and the inhibition at 1 µM [9] was -32%. It also gave an inhibition at 1 µM [10] of -11%, an inhibition at 1 µM [11] of -28% and an inhibition at 1 µM [12] of 4%. It also gave an inhibition at 1 µM [13] of -9%, an inhibition at 1 µM [14] of 53% and an inhibition at 1 µM [15] of -11%. For the same compound, the inhibition at 1 µM [16] was -9%, the inhibition at 1 µM [17] was 0% and the inhibition at 1 µM [18] was -16%. The inhibition at 1 µM [19] was -7%, the inhibition at 1 µM [20] was -1% and the inhibition at 1 µM [21] was -9%. The inhibition at 1 µM [22] was 0%, the inhibition at 1 µM [23] was 5% and the inhibition at 1 µM [24] was -14%. The inhibition at 1 µM [25] was -8%, the inhibition at 1 µM [26] was -4% and the inhibition at 1 µM [27] was 8%. The inhibition at 1 µM [28] was -7%, the inhibition at 1 µM [29] was -13% and the inhibition at 1 µM [30] was -23%. The inhibition at 1 µM [31] was -6%, the inhibition at 1 µM [32] was 0% and the inhibition at 1 µM [33] was 54%. For the same compound, the inhibition at 1 µM [34] was 5%.
